Test results: patent publication US9573961B2, “Inhibitors of the renal outer medullary potassium channel” (Merck Sharp & Dohme Corp., priority 2012, dated 2017)
Where two headings read alike, the source gives them in different places.

Legend:
Kir1.1 (ROMK1) = Kir1.1 (ROMK1) (Homo sapiens (Human), UniProt P48048); assay: Electrophysiology Assay (whole cell voltage clamp, IonWorks Quattro); type: cell-based; details: block during voltage step to 0 mV
Protocol: Chinese hamster ovary cells stably expressing Kir1.1 channels were maintained in T-75 flasks in cell culture media in a humidified 10% CO2 incubator at 37° C. Prior to an experiment, Kir1.1 expression was induced by overnight incubation with 1 mM sodium butyrate. […] After centrifugation, the cell pellet was resuspended in approximately 4.0 mL of bath solution and placed in the IonWorks instrument. The intracellular solution consisted of (in mM): 80 K gluconate, 40 KCl, 20 KF, 3.2 MgCl2, 3 EGTA, 5 Hepes, pH 7.4. Electrical access to the cytoplasm was achieved by perforation in 0.13 mg/mL amphotericin B for 4 min. […] Voltage protocols and current recordings were performed using the IonWorks HT software/hardware system. Currents were sampled at 1 kHz. No correction for liquid junction potentials was used. The test pulse, consisting of a 100 ms step to 0 mV from a holding potential of −70 mV, followed by a 100 ms voltage ramp from −70 mV to +70 mV, was applied before and after a 6 min compound incubation period. Test compounds were prepared by diluting DMSO stock solutions into the bath solution at 3× the final concentration and placed in the instrument in 96-well polypropylene plates. Current amplitudes were measured using the IonWorks software.

hROMK (hKir1.1) = hROMK (hKir1.1) (Homo sapiens (Human), UniProt P48048); assay: Thallium Flux Assay (ROMK channel functional thallium flux, FLIPR-Tetra); type: cell-based; details: read-out: Thallium Flux IC50
Chain of hROMK (hKir1.1) (P48048 whole entry): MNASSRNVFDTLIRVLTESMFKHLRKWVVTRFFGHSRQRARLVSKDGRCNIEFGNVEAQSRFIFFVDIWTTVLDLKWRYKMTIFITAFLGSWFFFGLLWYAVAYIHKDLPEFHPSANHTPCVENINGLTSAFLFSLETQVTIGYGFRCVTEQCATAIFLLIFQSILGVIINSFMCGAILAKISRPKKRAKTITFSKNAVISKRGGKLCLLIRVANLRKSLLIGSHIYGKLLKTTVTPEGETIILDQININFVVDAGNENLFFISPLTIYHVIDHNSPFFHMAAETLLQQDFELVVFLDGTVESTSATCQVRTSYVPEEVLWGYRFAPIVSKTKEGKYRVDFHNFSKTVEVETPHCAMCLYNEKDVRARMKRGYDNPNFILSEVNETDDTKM
Protocol: Cell Culture Conditions—HEK293 cells stably expressing hROMK (hKir1.1) were grown at 37° C. in a 10% CO2 humidified incubator in complete growth media: Dulbecco's Modified Eagle Medium supplemented with non-essential amino acids, Penicillin/Streptomycin/Glutamine, G418 and FBS. At >80% confluency, aspirate the media from the flask and rinse with 10 mL Calcium/Magnesium-free PBS. […] To dislodge the cell, gently bang the side of the flask with your hand. Triturate the cells completely and then transfer the cells to 25 mL complete media. Centrifuge at 1,500 rpm for 6 min followed by resuspension in complete growth media and determine cell concentration. […] Under ideal growth conditions and appropriate tissue culture practices, this cell line is stable for 40-45 passages.
FluxOR Kit Components (Invitrogen F10017) • FluxOR™ Reagent (Component A) • FluxOR™ Assay Buffer (Component B)—10× Concentrate • PowerLoad™ Concentrate (Component C)—100× Concentrate • Probenecid (Component D)—Lyophilized sample is kept at −20° C. Water soluble, 100× after solubilization in 1 mL water. […] Store at 4° C. • Thallium sulfate (Tl2SO4) Concentrate (Component G)—50 mM in water. Store at 4° C. • DMSO (dimethyl sulfoxide, Component H)—1 mL (100%)
Can be stored at room temperature • Stimulant Buffer (prepared at 5× final concentration in 1× FluxOR™ Chloride-Free Buffer): 7.5 mM Thallium sulfate and 0.75 mM Potassium sulfate (to give a final assay concentration of 3 mM Thallium/0.3 mM Potassium). Store at 4° C. when not in use. If kept sterile, this solution is good for months.
Assay Protocol—The ROMK channel functional thallium flux assay is performed in 384 wells, using the FLIPR-Tetra instrument. HEK-hKir1.1 cells are seeded in Poly-D-Lysine microplates and kept in a 37° C.-10% CO2 incubator overnight. On the day of the experiment, the growth media is replaced with the FluxOR™ reagent loading buffer and incubated, protected from light, at ambient temperature (23-25° C.) for 90 min. The loading buffer is replaced with assay buffer±test compound followed by 30 min incubation at ambient temperature, where the Thallium/Potassium stimulant is added to the microplate.
Step Protocol • 1. Seed HEK-hKir1.1 cells (50 μl at 20,000 cells/well) in 384-well PDL coated Microplates • 2. Allow cells to adhere overnight in humidified 37° C./10% CO2 incubator • 3. Completely remove cell growth media from microplate and replace with 25 μl loading buffer • 4. Incubate Microplate at room temperature, protected form light, for 90 min • 5. Remove loading buffer and replace with 25 μl 1× Assay Buffer±test compound. • 6. Incubate microplate at room temperature, protected from light, for 30 min • 7. […] Excitation=400 nm, Emission=460 & 580 nm. Collect data for ˜10 min.
Data Calculation—The fluorescence intensity of wells containing 3 μM of a standard control ROMK inhibitor of the present invention is used to define the ROMK-sensitive component of thallium flux. Fluorescence in the presence of test compounds is normalized to control values to provide % fluorescence change.

[1] = Chinese hamster ovary cells stably expressing Kir1.1, read-out: Electrophysiology IC50
[2] = HEK293 cells stably expressing hROMK (hKir1.1)
[3] = Electrophysiology IC50, Chinese hamster ovary cells stably expressing Kir1.1

Chain of Kir1.1 (ROMK1) (P48048 whole entry): as above

SMILES	IC50 (Kir1.1 (ROMK1); [1]) [nM]	IC50 (hROMK (hKir1.1); [2]) [nM]	IC50 (Kir1.1 (ROMK1); [3]) [nM]	IC50 (hROMK (hKir1.1)) [nM]
Cc1c([C@@H]2CN3CCN(C(=O)Cc4c(F)cc(-n5cnnn5)cc4F)C[C@@H]3CO2)ccc(F)c1C#N [Example 53, 3-[(3R,9aR)-8-{[2,6-difluoro-4-(1H-tetrazol-1-yl)phenyl]acetyl}octahydropyrazino[2,1-c][1,4]oxazin-3-yl]-6-fluoro-2-methylbenzonitrile]	110	180	–	–
Cc1c([C@@H]2CN3CCN(C(=O)Cc4ccc(-n5cnnn5)cc4)C[C@H]3CO2)csc1C#N [Example 39, 3-methyl-4-[(3R,9aS)-8-{[4-(1H-tetrazol-1-yl)phenyl]acetyl}octahydropyrazino[2,1-c][1,4]oxazin-3-yl]thiophene-2-carbonitrile]	–	60	60	–
Cc1c([C@@H]2CN3CCN(C(=O)Cc4c(F)cc(-n5cnnn5)cc4F)C[C@H]3CO2)ccc(F)c1C#N [Example 52, 3-[(3R,9aS)-8-{[2,6-difluoro-4-(1H-tetrazol-1-yl)phenyl]acetyl}octahydropyrazino[2,1-c][1,4]oxazin-3-yl]-6-fluoro-2-methylbenzonitrile]	70	170	–	–
Cc1c([C@@H]2CN3CCN(C(=O)Cc4cccc(-n5cnnn5)c4)C[C@@H]3CO2)ccc(F)c1C#N [Example 56, 6-fluoro-2-methyl-3-[(3R,9aR)-8-{[3-(1H-tetrazol-1-yl)phenyl]acetyl}octahydropyrazino[2,1-c][1,4]oxazin-3-yl]benzonitrile]	60	200	–	–
Cc1c([C@H]2CN3CCN(C(=O)Cc4ccc(-n5cnnn5)cc4)C[C@H]3CN2)ccc(F)c1C#N [Example 101]	–	60	50	–
C[C@@H]1Cc2cc([C@@H]3CN4CCN(C(=O)Cc5ccc(-n6cnnn6)cc5)C[C@H]4CN3)ccc2C(=O)O1 [Example 104]	–	290	380	–
Cc1c([C@H]2CN3CCN(C(=O)C4CCCc5cc(-n6cnnn6)ccc54)C[C@H]3CO2)csc1C#N (single isomer, unassigned) [Example 97]	280	620	–	–
Cc1c([C@H]2CN3CCN(C(=O)Cc4ccc5c(c4)COC5=O)C[C@H]3CO2)ccc(F)c1C#N [Example 23, 6-fluoro-2-methyl-3-{(3S,9aS)-8-[(1-oxo-1,3-dihydro-2-benzofuran-5-yl)acetyl]octahydropyrazino[2,1-c][1,4]oxazin-3-yl}benzonitrile]	–	–	70	70
O=C1OCc2c1ccc([C@H]1CN3CCN(C(=O)Cc4ccc(-n5cnnn5)cc4)C[C@H]3CO1)c2Cl [Example 21, 4-chloro-5-[(3S,9aS)-8-{[4-(1H-tetrazol-1-yl)phenyl]acetyl}octahydropyrazino[2,1-c][1,4]oxazin-3-yl]-2-benzofuran-1(3H)-one]	–	100	100	–
C[C@@H]1Cc2cc([C@@H]3CN4CCN(C(=O)Cc5c(F)cc(-n6cnnn6)cc5F)C[C@H]4CN3)ccc2C(=O)O1 [Example 105]	–	360	180	–
Cc1c([C@@H]2CN3CCN(C(=O)Cc4ccc(-n5cnnn5)cc4Cl)C[C@@H]3CO2)ccc(F)c1C#N [Example 69, 3-[(3R,9aR)-8-{[2-chloro-4-(1H-tetrazol-1-yl)phenyl]acetyl}octahydropyrazino[2,1-c][1,4]oxazin-3-yl]-6-fluoro-2-methylbenzonitrile]	–	–	110	100
O=C(Cc1ccc(-n2cnnn2)cc1)N1CCN2C[C@@H](c3ccc4nonc4c3)OC[C@@H]2C1 [Example 77, (3R,9aS)-3-(2,1,3-benzoxadiazol-5-yl)-8-{[4-(1H-tetrazol-1-yl)phenyl]acetyl}octahydropyrazino[2,1-c][1,4]oxazine]	–	150	50	–
